For seven compounds, IC50, CC50 and selectivity ratio results are on record in ChEMBL document CHEMBL4392858, “Synthesis and biological evaluation of novel imidazole nucleosides as potential anti-dengue virus agents” (Bioorg Med Chem, 2019).

The subject of series [1] is dengue virus type 1. The series is described as follows: Antiviral activity against Dengue virus 1 DGL2 replicon infected in BHK cells assessed as inhibition of viral replicon RNA replication incubated for 72 hrs by Gaussia-luciferase reporter gene assay. Format: functional, organism-based.
Series [2] in a line: Cytotoxicity in BHK cells assessed as reduction in cell viability incubated for 72 hrs by cell count reagent SF based microplate spectrophotometry. The note with it: cricetinae.
Series [3] is described as follows: Selectivity index, ratio of CC50 for cytotoxicity in BHK cells to IC50 for antiviral activity against Dengue virus 1 DGL2 replicon infected in BHK cells. Format: toxicity, cell-based. The following applies: hamster, read-out: Ratio CC50/IC50.

For the compound `C#Cc1c(C(N)=O)ncn1[C@@H]1S[C@H](CO)[C@@H](O)[C@H]1O`, in series [1], the IC50 was 14.6 µM. Also, the CC50 at 72 h in series [2] is more than 50 µM. The selectivity ratio in series [3] was more than 3.42.
`C#Cc1c(C#N)ncn1[C@@H]1O[C@H](CO)[C@@H](O)[C@H]1O`: the IC50 in series [1] amounted to 0.55 µM. For the same compound, the CC50 at 72 h in series [2] was determined as 3.99 µM. In series [3], the selectivity ratio came out at 7.25.
In the same order, the values of `C#Cc1c(C#N)ncn1[C@@H]1S[C@H](CO)[C@@H](O)[C@H]1O` are 6.57 µM, more than 50 µM and more than 7.61.
For the compound `C#Cc1c(C(N)=O)ncn1[C@@H]1[Se][C@H](CO)[C@@H](O)[C@H]1O`, the IC50 in series [1] was more than 20 µM. Moreover, in series [2], the CC50 at 72 h was more than 50 µM.
In the case of `C#Cc1c(C#N)ncn1[C@@H]1[Se][C@H](CO)[C@@H](O)[C@H]1O`, in series [1], the 50% inhibitory concentration (IC50) was 22.3 µM. For the same compound, in series [2], the CC50 at 72 h was more than 50 µM. In addition, the selectivity ratio in series [3] was more than 2.24.
For `C#Cc1c(C(N)=O)ncn1[C@@H]1O[C@H](CO)[C@@H](O)[C@H]1O`, in series [1], the IC50 stood at 0.27 µM. Further, in series [2], the CC50 at 72 h came to 1.24 µM. Besides, the selectivity ratio in series [3] came to 4.59.
In the same order, the values of `NC(=O)c1ncn([C@@H]2O[C@H](CO)[C@@H](O)[C@H]2O)n1` [RIBAVIRIN] are 6.66 µM, 49 µM and 7.35.
